*1 amine or outer side, *2 acyl side, *3 side chain or, on linkers, in order; H or OH if unused. Where a SMILES comes first, the peptide text is derived from it. Side-chain parts run from the residue outwards. The star is where a group is joined. C18 diacid = O=C(O)CCCCCCCCCCCCCCCCC(=O)*; γGlu = O=C(O)[C@H](CCC(=O)[*:2])N[*:1]; Isovaleryl = CC(C)CC(=O)*; AEEA = NCCOCCOCC(=O)O
Target: T1, Human Neuropeptide Y2 Receptor (Homo sapiens, UniProt P49146)
T1 construct: purchased CHEMICON HTS066M
T1 sequence (P49146 1-381): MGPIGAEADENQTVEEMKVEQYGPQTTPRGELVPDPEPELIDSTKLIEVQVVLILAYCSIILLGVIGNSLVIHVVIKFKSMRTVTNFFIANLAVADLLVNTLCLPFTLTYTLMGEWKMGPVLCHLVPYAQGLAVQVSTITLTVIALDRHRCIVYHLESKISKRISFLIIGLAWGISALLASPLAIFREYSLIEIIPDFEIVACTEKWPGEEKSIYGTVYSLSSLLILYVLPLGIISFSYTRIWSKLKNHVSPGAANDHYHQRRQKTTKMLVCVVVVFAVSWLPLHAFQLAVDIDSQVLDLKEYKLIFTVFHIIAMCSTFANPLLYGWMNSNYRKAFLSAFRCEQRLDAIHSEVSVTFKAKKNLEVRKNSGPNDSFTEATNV
Assay: Radioligand binding competition assay (RLB)
Settings: Table 3; human 125I-PYY (1-36) 0.02 nM, Y2 receptor membranes; read-out: Ki
Outline: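 Membranes from cells expressing human Y2 receptor (0.5 μg protein/well) were incubated with radioligand and serially diluted peptides in 50 mM HEPES, 5 mM MgCl2, 1 mM CaCl2, 0.2% ovalbumin, pH 7.4, for 2 h at room temperature with shaking. Bound radioactivity was collected by filtration and counted; IC50 from sigmoidal nonlinear regression.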

Compound	Ki [nM]
CC(C)CC(=O)N[C@@H](C)C(=O)N1CCC[C@H]1C(=O)N[C@@H](CCC(=O)O)C(=O)N[C@@H](CCCCNC(=O)COCCOCCNC(=O)COCCOCCNC(=O)CC[C@H](NC(=O)CCCCCCCCCCCCCCCCC(=O)O)C(=O)O)C(=O)N1CCC[C@H]1C(=O)N[C@@H](CCC(=O)O)C(=O)N[C@@H](CCC(=O)O)C(=O)N[C@@H](CCC(=O)O)C(=O)N[C@@H](C)C(=O)N[C@@H](C)C(=O)N1CCC[C@H]1C(=O)N[C@@H](CCC(=O)O)C(=O)N[C@@H](CCC(=O)O)C(=O)N[C@@H](CC(C)C)C(=O)N[C@@H](CCC(N)=O)C(=O)N[C@@H](CCCNC(=N)N)C(=O)N[C@@H](Cc1ccc(O)cc1)C(=O)N[C@@H](Cc1ccc(O)cc1)C(=O)N[C@H](C(=O)N[C@@H](CO)C(=O)N[C@@H](CC(C)C)C(=O)N[C@@H](CCCNC(=N)N)C(=O)N[C@@H](Cc1c[nH]cn1)C(=O)N[C@@H](Cc1ccc(O)cc1)C(=O)N[C@@H](Cc1ccc(O)cc1)C(=O)N[C@@H](CC(N)=O)C(=O)N[C@@H](Cc1c[nH]c2ccccc12)C(=O)N[C@@H](CC(C)C)C(=O)N[C@H](C(=O)N[C@@H](CCCNC(=N)N)C(=O)N[C@@H](CCC(N)=O)C(=O)N[C@@H](CCCNC(=N)N)C(=O)N[C@@H](Cc1ccc(O)cc1)C(N)=O)[C@@H](C)O)C(C)C [Compound 219, N{alpha-4}-(3-methylbutanoyl)-N{epsilon-7}-[2-(2-{2-[2-(2-{2-[(4S)-4-carboxy-4-(17-carboxyheptadecanamido)butanamido]ethoxy}ethoxy)acetamido]ethoxy}ethoxy)acetamido]-[4A,7K,9E,11E,13A,18Q,22V,28Y,30W,31L]hPYY (4-36)]	7.6
CC(C)CC(=O)N[C@@H](C)C(=O)N1CCC[C@H]1C(=O)N[C@@H](CCC(=O)O)C(=O)N[C@@H](CCCCNC(=O)COCCOCCNC(=O)COCCOCCNC(=O)CC[C@H](NC(=O)CCCCCCCCCCCCCCCCC(=O)O)C(=O)O)C(=O)N1CCC[C@H]1C(=O)N[C@@H](CCC(=O)O)C(=O)N[C@@H](CCC(=O)O)C(=O)N[C@@H](C)C(=O)N[C@@H](C)C(=O)N[C@@H](CO)C(=O)N[C@@H](C)C(=O)N[C@@H](CCC(=O)O)C(=O)N[C@@H](CCC(=O)O)C(=O)N[C@@H](CC(C)C)C(=O)N[C@@H](CCC(N)=O)C(=O)N[C@@H](CCCNC(=N)N)C(=O)N[C@@H](Cc1ccc(O)cc1)C(=O)N[C@@H](Cc1ccc(O)cc1)C(=O)N[C@H](C(=O)N[C@@H](CO)C(=O)N[C@@H](CC(C)C)C(=O)N[C@@H](CCCNC(=N)N)C(=O)N[C@@H](Cc1c[nH]cn1)C(=O)N[C@@H](Cc1ccc(O)cc1)C(=O)N[C@@H](Cc1ccc(O)cc1)C(=O)N[C@@H](CC(N)=O)C(=O)N[C@@H](Cc1c[nH]c2ccccc12)C(=O)N[C@@H](CC(C)C)C(=O)N[C@H](C(=O)N[C@@H](CCCNC(=N)N)C(=O)N[C@@H](CCC(N)=O)C(=O)N[C@@H](CCCNC(=N)N)C(=O)N[C@@H](Cc1ccc(O)cc1)C(N)=O)[C@@H](C)O)C(C)C [Compound 220, N{alpha-4}-(3-methylbutanoyl)-N{epsilon-7}-[2-(2-{2-[2-(2-{2-[(4S)-4-carboxy-4-(17-carboxyheptadecanamido)butanamido]ethoxy}ethoxy)acetamido]ethoxy}ethoxy)acetamido]-[4A,7K,9E,11A,14A,18Q,22V,28Y,30W,31L]hPYY (4-36)]	2.99

More lines, now with the values ahead:

Ki [nM]	Compound
0.93	CC(C)CC(=O)N[C@@H](C)C(=O)N1CCC[C@H]1C(=O)N[C@@H](C)C(=O)N[C@@H](CCCCNC(=O)COCCOCCNC(=O)COCCOCCNC(=O)CC[C@H](NC(=O)CCCCCCCCCCCCCCCCC(=O)O)C(=O)O)C(=O)N1CCC[C@H]1C(=O)N[C@@H](CCC(=O)O)C(=O)N[C@@H](CCC(=O)O)C(=O)N[C@@H](CC(=O)O)C(=O)N[C@@H](C)C(=O)N[C@@H](CO)C(=O)N1CCC[C@H]1C(=O)N[C@@H](CCC(=O)O)C(=O)N[C@@H](CCC(=O)O)C(=O)N[C@@H](CC(C)C)C(=O)N[C@@H](CCC(=O)O)C(=O)N[C@@H](CCC(N)=O)C(=O)N[C@@H](Cc1ccc(O)cc1)C(=O)N[C@@H](Cc1ccc(O)cc1)C(=O)N[C@H](C(=O)N[C@@H](CO)C(=O)N[C@@H](CC(C)C)C(=O)N[C@@H](CCCNC(=N)N)C(=O)N[C@@H](Cc1c[nH]cn1)C(=O)N[C@@H](Cc1ccc(O)cc1)C(=O)N[C@@H](Cc1ccc(O)cc1)C(=O)N[C@@H](CC(N)=O)C(=O)N[C@@H](Cc1c[nH]c2ccccc12)C(=O)N[C@@H](CC(C)C)C(=O)N[C@H](C(=O)N[C@@H](CCCNC(=N)N)C(=O)N[C@@H](CCC(N)=O)C(=O)N[C@@H](CCCNC(=N)N)C(=O)N[C@@H](Cc1ccc(O)cc1)C(N)=O)[C@@H](C)O)C(C)C [Compound 216, N{alpha-4}-(3-methylbutanoyl)-N{epsilon-7}-[2-(2-{2-[2-(2-{2-[(4S)-4-carboxy-4-(17-carboxyheptadecanamido)butanamido]ethoxy}ethoxy)acetamido]ethoxy}ethoxy)acetamido]-[4A,6A,7K,9E,18E,19Q,22V,28Y,30W,31L]hPYY (4-36)] (Isovaleryl-APAK([AEEA-AEEA-γGlu-C18 diacid])PEEDASPEELEQYYVSLRHYYNWLTRQRY-NH2)
1.49	CC(C)CC(=O)N[C@@H](C)C(=O)N1CCC[C@H]1C(=O)N[C@@H](CCC(=O)O)C(=O)N[C@@H](CCCCNC(=O)COCCOCCNC(=O)COCCOCCNC(=O)CC[C@H](NC(=O)CCCCCCCCCCCCCCCCC(=O)O)C(=O)O)C(=O)N1CCC[C@H]1C(=O)N[C@@H](CCC(=O)O)C(=O)N[C@@H](CCC(=O)O)C(=O)N[C@@H](CC(=O)O)C(=O)N[C@@H](CO)C(=O)N[C@@H](CO)C(=O)N1CCC[C@H]1C(=O)N[C@@H](CCC(=O)O)C(=O)N[C@@H](CCC(=O)O)C(=O)N[C@@H](CC(C)C)C(=O)N[C@@H](CCC(N)=O)C(=O)N[C@@H](CCCNC(=N)N)C(=O)N[C@@H](Cc1ccc(O)cc1)C(=O)N[C@@H](Cc1ccc(O)cc1)C(=O)N[C@H](C(=O)N[C@@H](C)C(=O)N[C@@H](CC(C)C)C(=O)N[C@@H](CCCNC(=N)N)C(=O)N[C@@H](Cc1c[nH]cn1)C(=O)N[C@@H](Cc1ccc(O)cc1)C(=O)N[C@@H](Cc1ccc(O)cc1)C(=O)N[C@@H](CC(N)=O)C(=O)N[C@@H](Cc1c[nH]c2ccccc12)C(=O)N[C@@H](CC(C)C)C(=O)N[C@H](C(=O)N[C@@H](CCCNC(=N)N)C(=O)N[C@@H](CCC(N)=O)C(=O)N[C@@H](CCCNC(=N)N)C(=O)N[C@@H](Cc1ccc(O)cc1)C(N)=O)[C@@H](C)O)C(C)C [Compound 218, N{alpha-4}-(3-methylbutanoyl)-N{epsilon-7}-[2-(2-{2-[2-(2-{2-[(4S)-4-carboxy-4-(17-carboxyheptadecanamido)butanamido]ethoxy}ethoxy)acetamido]ethoxy}ethoxy)acetamido]-[4A,7K,9E,12S,18Q,22V,23A,28Y,30W,31L]hPYY (4-36)]
4.77	CC(C)CC(=O)N[C@@H](C)C(=O)N1CCC[C@H]1C(=O)N[C@@H](CCC(=O)O)C(=O)N[C@@H](CCCCNC(=O)COCCOCCNC(=O)COCCOCCNC(=O)CC[C@H](NC(=O)CCCCCCCCCCCCCCCCC(=O)O)C(=O)O)C(=O)N1CCC[C@H]1C(=O)N[C@@H](CCC(=O)O)C(=O)N[C@@H](CCC(=O)O)C(=O)N[C@@H](C)C(=O)N[C@@H](C)C(=O)N[C@@H](CCC(=O)O)C(=O)N1CCC[C@H]1C(=O)N[C@@H](CCC(=O)O)C(=O)N[C@@H](CCC(=O)O)C(=O)N[C@@H](CC(C)C)C(=O)N[C@@H](CCC(N)=O)C(=O)N[C@@H](CCCNC(=N)N)C(=O)N[C@@H](Cc1ccc(O)cc1)C(=O)N[C@@H](Cc1ccc(O)cc1)C(=O)N[C@H](C(=O)N[C@@H](CO)C(=O)N[C@@H](CC(C)C)C(=O)N[C@@H](CCCNC(=N)N)C(=O)N[C@@H](Cc1c[nH]cn1)C(=O)N[C@@H](Cc1ccc(O)cc1)C(=O)N[C@@H](Cc1ccc(O)cc1)C(=O)N[C@@H](CC(N)=O)C(=O)N[C@@H](Cc1c[nH]c2ccccc12)C(=O)N[C@@H](CC(C)C)C(=O)N[C@H](C(=O)N[C@@H](CCCNC(=N)N)C(=O)N[C@@H](CCC(N)=O)C(=O)N[C@@H](CCCNC(=N)N)C(=O)N[C@@H](Cc1ccc(O)cc1)C(N)=O)[C@@H](C)O)C(C)C [Compound 223, N{alpha-4}-(3-methylbutanoyl)-N{epsilon-7}-[2-(2-{2-[2-(2-{2-[(4S)-4-carboxy-4-(17-carboxyheptadecanamido)butanamido]ethoxy}ethoxy)acetamido]ethoxy}ethoxy)acetamido]-[4A,7K,9E,11A,13E,18Q,22V,28Y,30W,31L]hPYY (4-36)]
